Changes are numbered by the printed parent chain. Names and notes keep the numbering of the source. Read-outs that look alike come from different tables or passages of the source. Residues, ends and D or L forms follow the SMILES beside them. No end group written: not given here. *: point of attachment. Cbz = O=C(OCc1ccccc1)*
Legend:
Htt^Q46 = molecular target: T1, Htt^Q46 (Homo sapiens, UniProt P42858, INS38QQQQQQQQQQQQQQQQQQQQQQQQQ); experiment: Thioflavin-T in vitro HttQ46 aggregation assay; assay type: biochemical; settings: 3:1 peptide to HttQ46
T1 construct: Huntingtin exon-1 with 46 glutamines (Htt^Q46) in pET-32 was obtained from Addgene; pET-32 fusion tag (N, cleaved yes); host or cells: E. coli BL21
Protocol: Huntingtin exon-1 with 46 glutamines (Htt^Q46) in pET-32 was obtained from Addgene. Htt^Q46 was grown in BL21 cells at 37° C. to an optical density of 0.6 and induced with IPTG at 1 mM overnight at 16° C. After induction cells were spun down at 7,000 rpm for 5 minutes and resuspended in resuspension buffer (15 mM Tris-HCl buffer, pH 8.0). For lysis, lysozyme was added and cells were incubated at 4° C. for 45 minutes. To obtain soluble fraction, lysates were spun down at 12,000 rpm for 10 minutes, after which supernatant was added to 3 ml of Ni-beads (GoldBio) per 100 ml of lysate and tumbled for 4 hours at 4° C. Beads were then washed three times with resuspension buffer and then washed three more times with wash buffer (50 mM Tris-HCl pH 8.0, 150 mM NaCl, 1 mM PMSF, 1 mM EDTA). Protein was then eluted off beads by tumbling overnight at 4° C. in 25 mL of wash buffer with 250 mM imidazole.
Aggregation assays were performed as previously described in Kakkar, V. et al. Briefly, 15 μM Htt^46Q was mixed with 90 μM SRCP1 peptide (GenScript) (1:6, 1:3, 1:1.5) and 10 μM Thioflavin-T (Sigma-Aldrich). All samples were prepared on ice in buffer containing 20 mM Tris-HCl pH 8.0, 50 mM NaCl, 2 mM CaCl2). […] Fluorescence was measured with the excitation at 440 nm and emission at 480 nm, every 5 minutes using a Tecan Plate reader.

^GFPHtt^ex1Q103 = assay type: cell-based, Dictyostelium discoideum; settings: Dictyostelium
Protocol: (§1) For proteasome inhibition, 5×10^6 cells were incubated with either DMSO or 100 μM MG132 (Sigma-Aldrich) for 18 hours. Following treatment, cells were imaged and/or harvested by spinning at 500 g at room temperature for 5 minutes. Cell pellets were washed three times with 1×PBS and lysed with ice-cold NETN (with protease inhibitor). Lysates were then sonicated twice for 10-15 seconds. To verify inhibition, samples were run on SDS-PAGE and analyzed by western blot for ubiquitin.
For Hsp70 inhibition, 1×10^7 cells were incubated either with DMSO or 80 μM VER155008 (ApexBio) for 24 hours. Following treatments, cells were imaged and/or harvested by spinning at 500 g at room temperature for 5 minutes. Cell pellets were washed three times with 1×PBS and lysed with ice-cold NETN (with protease inhibitor). Lysates were then sonicated twice for 10-15 seconds. To verify inhibition, samples were run on SDS-PAGE and analyzed by western blot for ATG8.
For Dictyostelium cells, 1×10^7 cells were washed three times with ice-cold starvation buffer and then imaged with a 20× objective using the Evos FL Auto Imaging System.

ubiquitinated species = experiment: Western blot for ubiquitin after proteasome inhibition in Dictyostelium; assay type: cell-based, Dictyostelium discoideum; settings: increasing concentrations of MG132, 18 hours
Protocol: as §1, with “Following” for “For proteasome inhibition, 5×10^6 cells were incubated with either DMSO or 100 μM MG132 (Sigma-Aldrich) for 18 hours. Following”
(§2) Following sonication, lysates were subjected to BCA protein assay (ThermoFisher Scientific) and prepared for loading by the addition of 4× laemmli buffer and boiling for four minutes. Samples then loaded on SDS-polyacrylamide gels, ran at 175 V, and transferred onto an Immuno-blot PVDF membrane (Biorad) overnight at 30 V. Membranes were blocked in 5% milk in TBS with 0.1% Tween (TBST) and incubated in primary antibody overnight at 4° C. Following primary, membranes were washed for 10 minutes at room temperature three times with TBST and incubated in secondary for an hour at room temperature. Membranes were then washed for 10 minutes at room temperature three times with TBST and then incubated in buffer for enhanced chemiluminescence (50 mM Na2HPO4; 50 mM Na2CO3; 10 mM NaBO3.4H2O; 250 mM luminol; 90 mM coumaric acid).

^GFPHtt^ex1Q74 = experiment: GFPHttex1Q74 aggregation in transfected HEK293 cells (fluorescent/confocal microscopy, western blot, filter trap assay); assay type: cell-based, human; settings: for ability of SRCP1 mutant to suppress GFPHttex1Q74 aggregation: HEK293, 48 hours post-transfection, western blot and fluorescent microscopy; for ability of SRCP1 point mutant to suppress GFPHttex1Q74 aggregation: HEK293, fluorescence microscopy
Protocol: Transfections were performed with Lipofectamine 2000 (Invitrogen by ThermoFisher Scientific) and adapted from the manufacturer's instructions. Briefly, cells were plated on either 12-well or 6-well plates and transfected at 50-70% confluency. For 12-well transfections, 0.833 μg of DNA per well was mixed with 50 μl of OptiMEM (Gibco by Life Technologies) media and incubated for 5 minutes at room temperature. Lipofectamine 2000 in a 2:1, μl of lipofectamine: μg DNA ratio was mixed with 50 μl of OptiMEM media and incubated for 5 minutes at room temperature. DNA and Lipofectamine were mixed and incubated for 15 minutes at room temperature. Fresh media was added to cells prior to the addition of DNA and lipofectamine. For 6-well transfections, the same protocol is followed except that 1.25 μg of DNA per well and 100 μl of OptiMEM for dilution was used. Media was changed 24 hours post-transfection and cells were harvested 48 hours post-transfection. Prior to harvesting, HEK293 cells were washed three times with ice-cold 1×PBS. Samples were then lysed with either 150 μl of ice-cold NETN (with protease inhibitor) or 1× Laemmli Buffer and sonicated twice for 5-8 seconds.
(§3) For proteasome inhibition, 30 hours post-transfection cells would be replenished with DMEM containing either DMSO or 10 μM MG132 (Sigma-Aldrich) for 18 hours. Prior to harvesting, HEK293 cells were washed three times with ice-cold 1×PBS and imaged by fluorescent microscopy with a 20× objective using the Evos FL Auto Imaging System. Cells were then lysed with either 150 μl of ice-cold NETN (with protease inhibitor) or 1× Laemmli Buffer and sonicated twice for 5-8 seconds.
as §3, with “autophagy” for “proteasome”, “24” for “30”, “and treated with” for “containing”, “5 mM 3-Methyladenine” for “10 μM MG132”, “an additional 24” for “18”
For HEK293s′, slides were prepared by placing coverslips in 6-well plates and incubating with poly-L-lysine hydrobromide (Sigma-Aldrich) for an hour at room temperature. Coverslips were rinsed with 1×PBS three times prior to plating HEK293 cells. HEK293 cells were then transfected and fixed by incubation in 4% paraformaldehyde for 20 minutes at room temperature. Coverslips were mounted with ProLong Gold Antifade reagent and imaged with a 20× objective using the Evos FL Auto Imaging System or with a 40× objective using the Leica TCS SP5 Confocal Microscope System. For confocal, Z-stack images were obtained at […] intervals at 1024×1024 pixel resolution and merged using Fiji.
as §2
For HEK293 lysates, BCA protein assay was used to determine protein concentration. […]

ATG8 [1] = settings: 150 mM NH4Cl, 8 hours
Protocol: For autophagy inhibition, 1×10^7 cells were incubated either with vehicle or 150 μM NH4Cl (Sigma-Aldrich) for 8 hours. Following treatments, cells were imaged by fluorescent microscopy and plated on coverslips at a density of 2×10^6 cells per ml and allowing cells to adhere. Cells were then washed three times with 1×PBS and fixed with 100% ice-cold methanol at −20° C. for 10 minutes. Methanol was aspirated and cells were washed twice with 1×PBT (0.1% Triton X, 0.5% BSA in 1×PBS), incubated in blocking buffer (1% Triton X, 2% BSA in 1×PBT) for 30 minutes at room temperature, and put in primary Rb anti ATG8a (courtesy of Jason King, University of Sheffield) (1:5000) overnight at 4° C. Following primary cells were washed three times with 1×PBT and incubated in secondary goat anti rabbit (Jackson ImmunoResearch Laboratories; 711-166-152) for 2 hours at room temperature. Following secondary, cells were washed an additional three times with 1×PBT and mounted on slides with ProLong Gold Antifade reagent (Invitrogen by ThermoFisher Scientific). Slides were imaged with a Nikon eclipse 90i confocal microscope.

[2] = Solubility of SRCP1 peptide in vitro; assay type: physicochemical; settings: data not shown
ATG8 [3] = experiment: Western blot for ATG8 after Hsp70 inhibition in Dictyostelium; assay type: cell-based, Dictyostelium discoideum; settings: 80 μM Ver155008, 24 hours
Protocol: as §2, with “For Hsp70 inhibition, 1×10^7 cells were incubated either with DMSO or 80 μM VER155008 (ApexBio) for 24 hours. Following treatments, cells were imaged and/or harvested by spinning at 500 g at room temperature for 5 minutes. Cell pellets were washed three times with 1×PBS and lysed with ice-cold NETN (with protease inhibitor). Lysates were then sonicated twice for 10-15 seconds. To verify inhibition, samples were run on SDS-PAGE and analyzed by western blot for ATG8. Following sonication,” for “Following sonication,”

[4] = HEK293, 10 μM MG132 for 18 hours, absence of RFPSRCP1
[5] = HEK293, 5 mM 3-MA for 24 hours, without SRCP1

T1 sequence (P42858 with tags, fused parts or gaps with the stated changes): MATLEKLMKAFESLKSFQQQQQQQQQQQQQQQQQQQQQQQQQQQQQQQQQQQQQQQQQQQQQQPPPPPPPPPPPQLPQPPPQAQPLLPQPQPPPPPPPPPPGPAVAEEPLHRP

With “LIWGVYGFIR [SEQ ID NO:5, peptide of SRCP1 amino acids 61-70]” the “HttQ46 aggregation in vitro, individual domain peptides” value (Htt^Q46) was “sufficient to suppress Htt^Q46 aggregation in vitro”.

For “VI-A: SRCP1 61-70 peptide with amino acids V65 and I69 mutated to alanine (LIWGAYGFAR)”, the “HttQ46 aggregation in vitro, individual domain peptides” value (Htt^Q46) was “loss in activity”.

In the case of `CC(C)C[C@@H](C=O)NC(=O)[C@H](CC(C)C)NC(=O)[C@H](CC(C)C)NC(=O)OCc1ccccc1` [MG132, reference compound] (Cbz-Leu-Leu-Leu-aldehyde), the “accumulation of aggregated GFPHttex1Q103” value (^GFPHtt^ex1Q103; 100 μM MG132, 18 hours) is reported as “does not result in an accumulation of aggregated”, the “accumulation of ubiquitinated species” value (ubiquitinated species) is reported as “leads to an accumulation of ubiquitinated species” and the “insoluble GFPHttex1Q74” value (^GFPHtt^ex1Q74; [4]) is reported as “increased in both the insoluble and soluble fraction”. For the same molecule, the “soluble GFPHttex1Q74” value (^GFPHtt^ex1Q74; [4]) was “increased in both the insoluble and soluble fraction”.

In the case of `Cl.N` [NH4Cl], the “accumulation of aggregated GFPHttex1Q103” value (^GFPHtt^ex1Q103; 150 mM NH4Cl, 8 hours) is reported as “does not lead to accumulation of aggregated” and the ATG8 puncta (ATG8 [1]) is reported as “leads to an accumulation of large ATG8 puncta”.

With `Cn1cnc(N)c2ncnc1-2` [3-MA, 3-Methyladenine, reference compound] the “aggregated GFPHttex1Q74” value (^GFPHtt^ex1Q74; [5]) was “significant increase in soluble and aggregated” and the “soluble GFPHttex1Q74” value (^GFPHtt^ex1Q74; [5]) was “significant increase in soluble and aggregated”.

For LIWGVYGFIRGGVGLVKWRG [SEQ ID NO:9], the solubility in vitro [2] was “remained soluble in vitro”.

With `N#Cc1ccc(COC[C@H]2O[C@@H](n3c(NCc4ccc(Cl)c(Cl)c4)nc4c(N)ncnc43)[C@H](O)[C@@H]2O)cc1` [VER-155008] the “accumulation of aggregated GFPHttex1Q103” value (^GFPHtt^ex1Q103; 80 μM VER-155008, 24 hours) was “does not lead to accumulation of aggregated” and the ATG8 protein levels (ATG8 [3]) was “leads to an increase of ATG8 proteins levels”.

B1: ^RFPSRCP1^ST1: SRCP1 with all N-terminal serine and threonine residues mutated to alanine (protein)
chain: MAILAAFAAFANPPKLNKAAFAAAAGAALAMGANAFAWGGGWGGFGGPKGGSFNVDIAGNLIWGVYGFIRGGVGLVKWRGLQKGCKQP
modifications: left off: large carriers
notes: SRCP1 with all N-terminal serine and threonine residues mutated to alanine
With B1 the “ability of SRCP1 mutant to suppress GFPHttex1Q74 aggregation” value (“ability of SRCP1 mutant” for short) (^GFPHtt^ex1Q74) was “did not disrupt SRCP1's ability to suppress polyQ aggregation”.

B2: ^RFPSRCP1^61-70A: SRCP1 with amino acids 61-70 mutated to alanine (protein)
chain: MTILSTFTSFSNPPKLNKSSFSSSTGSSLSMGSNSFAWGGGWGGFGGPKGGSFNVDIAGNAAAAAAAAAAGGVGLVKWRGLQKGCKQP
modifications: left off: large carriers
notes: SRCP1 with amino acids 61-70 mutated to alanine
For B2, the “ability of SRCP1 mutant” value (^GFPHtt^ex1Q74) was “lost the ability to suppress”.

B3: ^RFPSRCP1^71-80A: SRCP1 with amino acids 71-80 mutated to alanine (protein)
chain: MTILSTFTSFSNPPKLNKSSFSSSTGSSLSMGSNSFAWGGGWGGFGGPKGGSFNVDIAGNLIWGVYGFIRAAAAAAAAAALQKGCKQP
modifications: left off: large carriers
notes: SRCP1 with amino acids 71-80 mutated to alanine
For B3, the “ability of SRCP1 mutant” value (^GFPHtt^ex1Q74) was “retained full activity”.

B4: ^RFPSRCP1^V65A: SRCP1 point mutant, V65 mutated to alanine (protein)
chain: B2 chain with A61L, A62I, A63W, A64G, A66Y, A67G, A68F, A69I, A70R
modifications: left off: large carriers
notes: SRCP1 point mutant, V65 mutated to alanine
For B4, the “ability of SRCP1 point mutant to suppress GFPHttex1Q74 aggregation” value (^GFPHtt^ex1Q74) was “resulted in a decrease in SRCP1 function”.

B5: ^RFPSRCP1^I69A: SRCP1 point mutant, I69 mutated to alanine (protein)
chain: B2 chain with A61L, A62I, A63W, A64G, A65V, A66Y, A67G, A68F, A70R
modifications: left off: large carriers
notes: SRCP1 point mutant, I69 mutated to alanine
With B5 the “ability of SRCP1 point mutant to suppress GFPHttex1Q74 aggregation” value (^GFPHtt^ex1Q74) was “resulted in a decrease in SRCP1 function”.

From US20200207835A1, “SRCP1-BASED THERAPY FOR DISEASES ASSOCIATED WITH PROTEIN AGGREGATION” (THE MEDICAL COLLEGE OF WISCONSIN, INC., priority 2017, published 2020)
